Test results taken from US10639299B2, “Calcium sensing receptors, ligands, compositions, and methods of use” (Georgia State University Research Foundation, Inc., priority 2016, dated 2020).
pEC50, pKd: −log10 of the molar value. Where two headings read alike, the source gives them in different places.

What was measured:
CaSR [1] = target: T1, CaSR (Homo sapiens, UniProt P41180); set-up: host or cells: HEK cells, transient; conditions: HEK cells, in the presence of 150 mM NaCl; read-out: EC50 for intracellular calcium responses; cited from earlier work
T1 sequence (P41180 20-1078): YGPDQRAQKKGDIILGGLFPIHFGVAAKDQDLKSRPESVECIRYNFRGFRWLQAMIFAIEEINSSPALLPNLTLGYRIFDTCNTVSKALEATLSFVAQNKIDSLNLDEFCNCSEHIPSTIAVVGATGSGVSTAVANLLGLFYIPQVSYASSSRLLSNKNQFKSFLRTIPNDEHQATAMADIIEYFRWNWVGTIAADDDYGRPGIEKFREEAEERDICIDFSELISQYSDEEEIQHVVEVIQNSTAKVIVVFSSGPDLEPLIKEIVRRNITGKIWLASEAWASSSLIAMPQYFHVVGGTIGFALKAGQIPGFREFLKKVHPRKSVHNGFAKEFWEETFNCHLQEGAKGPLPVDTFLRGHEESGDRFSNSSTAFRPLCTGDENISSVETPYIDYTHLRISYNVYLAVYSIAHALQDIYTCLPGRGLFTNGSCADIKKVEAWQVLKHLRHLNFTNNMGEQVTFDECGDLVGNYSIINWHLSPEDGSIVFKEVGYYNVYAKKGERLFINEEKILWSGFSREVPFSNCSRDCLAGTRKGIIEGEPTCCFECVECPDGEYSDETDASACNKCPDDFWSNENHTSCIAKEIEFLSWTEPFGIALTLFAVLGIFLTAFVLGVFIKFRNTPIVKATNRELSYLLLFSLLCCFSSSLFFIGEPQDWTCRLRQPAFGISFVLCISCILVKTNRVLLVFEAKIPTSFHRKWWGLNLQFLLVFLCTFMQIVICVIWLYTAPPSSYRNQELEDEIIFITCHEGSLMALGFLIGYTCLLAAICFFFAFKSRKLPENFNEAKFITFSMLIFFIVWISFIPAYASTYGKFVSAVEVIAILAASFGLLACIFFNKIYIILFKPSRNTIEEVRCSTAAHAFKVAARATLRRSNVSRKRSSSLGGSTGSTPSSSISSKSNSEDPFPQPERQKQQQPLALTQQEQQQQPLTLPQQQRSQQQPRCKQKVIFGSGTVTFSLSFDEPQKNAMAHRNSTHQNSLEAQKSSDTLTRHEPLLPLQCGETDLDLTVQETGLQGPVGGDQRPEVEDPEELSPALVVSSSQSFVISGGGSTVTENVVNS

ECD of CaSR = target: T2, ECD of CaSR (Homo sapiens, UniProt P41180); experiment: Ca2+ binding to the ECD by Trp fluorescence signal change; conditions: for pKd: read-out: Kd, 2-phase Hill equation
T2 construct: made in house; host or cells: HEK293S (GnTI-) suspension culture, secreted
T2 sequence (P41180 20-612): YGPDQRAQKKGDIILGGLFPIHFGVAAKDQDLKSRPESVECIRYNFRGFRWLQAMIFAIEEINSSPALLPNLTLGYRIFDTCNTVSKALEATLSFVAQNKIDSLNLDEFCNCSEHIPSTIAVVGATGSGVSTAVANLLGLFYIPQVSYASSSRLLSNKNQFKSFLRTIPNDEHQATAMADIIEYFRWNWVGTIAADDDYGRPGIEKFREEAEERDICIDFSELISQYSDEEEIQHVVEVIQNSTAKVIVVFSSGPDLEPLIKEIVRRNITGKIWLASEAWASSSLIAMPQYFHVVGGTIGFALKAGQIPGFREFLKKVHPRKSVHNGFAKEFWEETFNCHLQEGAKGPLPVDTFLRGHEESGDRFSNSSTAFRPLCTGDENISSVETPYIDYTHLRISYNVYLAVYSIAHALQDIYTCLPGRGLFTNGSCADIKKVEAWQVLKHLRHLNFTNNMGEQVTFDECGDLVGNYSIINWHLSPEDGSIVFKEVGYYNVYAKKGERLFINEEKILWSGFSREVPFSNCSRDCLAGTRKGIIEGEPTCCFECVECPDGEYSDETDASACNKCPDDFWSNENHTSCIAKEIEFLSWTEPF

CaSR [2] = target: T3, CaSR (Bos taurus, UniProt P35384); conditions: X. laevis oocytes; cited from earlier work
T3 construct: host or cells: X. laevis oocytes
T3 sequence (P35384 20-1085): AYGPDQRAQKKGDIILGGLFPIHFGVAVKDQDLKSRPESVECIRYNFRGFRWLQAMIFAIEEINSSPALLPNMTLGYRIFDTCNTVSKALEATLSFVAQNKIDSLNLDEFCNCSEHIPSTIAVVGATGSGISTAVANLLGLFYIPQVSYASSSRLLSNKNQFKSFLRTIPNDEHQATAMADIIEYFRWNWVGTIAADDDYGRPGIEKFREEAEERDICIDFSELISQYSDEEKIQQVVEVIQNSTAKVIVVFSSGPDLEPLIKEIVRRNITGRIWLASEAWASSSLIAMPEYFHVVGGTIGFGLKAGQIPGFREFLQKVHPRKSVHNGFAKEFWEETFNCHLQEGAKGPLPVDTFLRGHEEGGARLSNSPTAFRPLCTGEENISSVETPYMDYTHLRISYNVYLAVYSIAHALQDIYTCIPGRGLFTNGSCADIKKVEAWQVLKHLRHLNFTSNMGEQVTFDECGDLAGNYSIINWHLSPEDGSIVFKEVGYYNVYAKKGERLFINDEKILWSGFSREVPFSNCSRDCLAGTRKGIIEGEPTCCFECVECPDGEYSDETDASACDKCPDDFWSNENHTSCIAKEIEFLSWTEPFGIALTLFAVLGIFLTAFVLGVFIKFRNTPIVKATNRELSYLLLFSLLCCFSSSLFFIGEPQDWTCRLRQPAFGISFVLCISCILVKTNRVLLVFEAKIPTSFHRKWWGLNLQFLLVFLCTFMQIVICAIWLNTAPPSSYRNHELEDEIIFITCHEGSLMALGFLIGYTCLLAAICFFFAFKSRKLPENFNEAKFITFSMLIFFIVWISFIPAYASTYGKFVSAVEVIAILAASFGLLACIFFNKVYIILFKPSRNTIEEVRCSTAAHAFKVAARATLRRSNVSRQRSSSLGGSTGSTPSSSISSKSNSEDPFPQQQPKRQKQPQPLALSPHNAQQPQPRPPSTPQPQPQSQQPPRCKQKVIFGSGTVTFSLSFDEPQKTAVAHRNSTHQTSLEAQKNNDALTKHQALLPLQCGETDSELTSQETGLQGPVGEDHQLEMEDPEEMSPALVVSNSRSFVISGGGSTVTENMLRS

CaSR [3] = target: T1, CaSR; experiment: ERK1/2 phosphorylation in 5001 cells stably expressing hCaSR; format: cell-based; set-up: expressed in transfected cells
Procedure: The 5001 cell line stably expressing hCaSR was starved in serum-free DMEM medium supplemented with 0.2% (w/v) BSA overnight, followed by washing 3-times with HBSS and a subsequent 10 minute HBSS incubation after 12 hours. To induce ERK1/2 phosphorylation, varying concentrations of [Mg^2+]o (0-50 mM) or [Ca^2+]o (0-30 mM) with or without 0.5 mM TNCA were added to cells and incubated for 10 minutes at 37° C. The cells were then lysed with Pierce RIPA buffer (ThermoFisher Scientific). Total protein concentration was measured using the BioRad assay. Lysates containing 100 μg of total protein were loaded onto 4-20% gradient SDS-PAGE gels for separation. After electrophoresis, proteins on the gel were transferred to nitrocellulose membranes and further analyzed by western blotting. Anti-phospho-p44/42 ERK (1:1000 dilution) and anti-p44/42 (1:2000) polyclonal antibodies were utilized as probes to detect the phosphorylated ERK1/2 and total ERK1/2 respectively. A chemiluminescent detection method (AP Conjugate Substrate Kit, Bio-Rad) was applied to detect phosphor-ERK1/2 and total-ERK1/2. The respective bands on western blots were evaluated by densitometry. The EC50 of [Mg^2+]o- or [Ca^2+]o-dependent responses were obtained by fitting the [Mg^2+]o or [Ca^2+]o concentration-response curves with the Hill equation (Eq.1).

CaSR [4] = target: T1, CaSR; experiment: [Ca^2+]i signaling (Fura-2) evoked by [Mg^2+]o/[Ca^2+]o in CaSR-expressing HEK293 cells (5001 cell population assay); format: cell-based; set-up: expressed in transfected cells
Procedure: Measurement of intracellular free Ca^2+ was assessed as described by Huang, et al^33. Briefly, wild type CaSR, or its mutants, were transiently transfected into HEK293 cells grown on coverslips and cultured for 48 h. The cells were subsequently loaded for 15 min using 2 μM Fura-2 AM in 2 mL physiological saline buffer (10 mM HEPES, 140 mM NaCl, 5 mM KCl, 1.0 mM MgCl2 and pH 7.4). The coverslips were mounted in a bath chamber on the stage of a Leica DM6000 fluorescence microscope. The cells were alternately illuminated with 340 or 380 nm light, and the fluorescence at an emission wavelength 510 nm was recorded in real time as the [Ca^2+]o and/or [Mg^2+]o was increased in a stepwise manner in the presence or absence of 0.25 mM TNCA in buffer (10 mM HEPES, 155 mM NaCl, 5 mM KCl, 2 mM NaH2PO4, 0.5 mM MgCl2 and pH 7.4). The ratio of the emitted fluorescence intensities resulting from excitation at both wavelengths was utilized as a surrogate for changes in [Ca^2+]i and was further plotted and analyzed as a function of [Ca^2+]o. All experiments were performed at room temperature. The signals from 20 to 100 single cells were recorded for each measurement. Oscillations were identified as three successive fluctuations in [Ca^2+]i after the initial peak. Determination of the Effect of TNCA on Mg^2+-Evoked [Ca^2+]i Signaling by Stimulation of CaSR in Cell Populations.
Changes in the intracellular Ca^2+ concentration [Ca^2+ ]i elicited by extracellular Mg^2+ ([Mg^2+]o) in a population of cells were measured by fluorimetry as described previously^33. A cell line stably expressing CaSR (designated the “5001 cell line”) was seeded on 13.5×20-mm coverslips and cultured in DMEM. After reaching 95% confluence, cells were washed three times using loading buffer (20 mM HEPES [pH 7.4], 125 mM NaCl, 5 mM KCl, 1.25 mM CaCl2, 1 mM MgCl2, 1 mM NaH2PO4, 1% glucose, and 1% BSA) and subsequently incubated with 4 μM Fura-2 and 4 μM pluronic F127 for 20 minutes at 37° C. to enable sufficient dye loading in the same buffer. After removing the excess Fura-2, coverslips with cells were diagonally positioned in a quartz cuvette filled with 3 ml of experimental buffer (125 mM NaCl, 5 mM KCl, 0.5 mM CaCl2, 0.5 mM MgCl2, 1% glucose, and 1% BSA). Measurements of Fura-2 fluorescence at 510 nm when excited at 340 or 380 nm were performed on a QM1 fluorescence spectrophotometer (PTI). The emission ratio of 340/380 was calculated and used to reflect the changes in [Ca^2+]i when different concentrations of [Mg^2+]o were applied to the cells.
To examine the co-activation of CaSR by TNCA and [Mg^2+]o or [Ca^2+]o, different concentrations of TNCA were placed in the experimental buffer with a fixed concentration of [Ca^2+]o and varying concentrations of [Mg^2+]o, or vice versa, as described in the results section. The effects of other ligands were analyzed by comparing the changes in [Ca^2+ ]i produced by [Mg^2+]o alone or by co-application of Mg^2+ with other ligands. The EC50 of [Mg^2+]o obtained during incubation with various concentrations of TNCA is compared with that observed in the presence of [Mg^2+]o alone. The EC50 changes were plotted as a function of TNCA concentration and the curve was fit to the Hill equation. The activation of CaSR by the TNCA, functioning as a co-agonist with [Mg^2+]o, is indicated by the increasingly leftward-shifted EC50 for [Mg^2+]o as the concentration of TNCA increases (FIG. 6).

| co-agonism with [Mg^2+]o in activating ERK1/2 phosphorylation (CaSR [3]) | co-agonism with [Mg^2+]o in activating [Ca^2+]i oscillations (CaSR [4]) | potency relative to Phe in reducing the EC50 for [Mg^2+]o or [Ca^2+]o activation of [Ca^2+]i signaling (CaSR [4]; WT and mutant CaSRs) | pEC50 (CaSR [4]; determined indirectly through the EC50 change of [Mg^2+]o at different TNCA concentrations, 0.5 mM [Ca^2+]o, read-out: apparent EC50 of TNCA as co-agonist) | activation of the receptor by the exogenous compound alone (CaSR [4]; without metal agonist) | Compound | pEC50 (CaSR [1]) | Hill number, 2-phase Hill equation (ECD of CaSR; first phase) | pKd (ECD of CaSR; first phase) | Hill number, 2-phase Hill equation (ECD of CaSR; second phase) | pKd (ECD of CaSR; second phase) | pEC50 (CaSR [2]) |
| --- | --- | --- | --- | --- | --- | --- | --- | --- | --- | --- | --- |
| – | – | – | – | – | [Ca+2] [Ca^2+, calcium] | 2.30 to 2.52 | 1.1 | 3.05 | 3.8 | 2.00 | 2.52 |
| strong co-agonist | strong co-agonist | greater than 1000 fold | ≤ 5.70 | cannot activate the receptor | O=C(O)[C@@H]1Cc2c([nH]c3ccccc23)CN1 [TNCA, L-1,2,3,4-tetrahydronorharman-3-carboxylic acid] | – | – | – | – | – | – |
